Peptide text beside a SMILES is read from it.
What was measured:
[1] = biological target: T1, Aminopeptidase N (Homo sapiens, UniProt P15144); assay: Inhibition of human aminopeptidase N
[2] = biological target: T2, Neprilysin (Homo sapiens, UniProt P08473); assay: Inhibition of human neprilysin
[3] = biological target: T1, Aminopeptidase N; assay: Inhibition of human recombinant aminopeptidase N using Ala-Mca as substrate incubated for 10 mins prior to substrate addition measured for 40 mins by fluorometry
[4] = biological target: T2, Neprilysin; assay: Inhibition of human recombinant neprilysin using Abz-dR-G-L-EDDnp as substrate incubated for 10 mins prior to substrate addition measured for 40 mins by fluorometry

T1 sequence (P15144 whole entry): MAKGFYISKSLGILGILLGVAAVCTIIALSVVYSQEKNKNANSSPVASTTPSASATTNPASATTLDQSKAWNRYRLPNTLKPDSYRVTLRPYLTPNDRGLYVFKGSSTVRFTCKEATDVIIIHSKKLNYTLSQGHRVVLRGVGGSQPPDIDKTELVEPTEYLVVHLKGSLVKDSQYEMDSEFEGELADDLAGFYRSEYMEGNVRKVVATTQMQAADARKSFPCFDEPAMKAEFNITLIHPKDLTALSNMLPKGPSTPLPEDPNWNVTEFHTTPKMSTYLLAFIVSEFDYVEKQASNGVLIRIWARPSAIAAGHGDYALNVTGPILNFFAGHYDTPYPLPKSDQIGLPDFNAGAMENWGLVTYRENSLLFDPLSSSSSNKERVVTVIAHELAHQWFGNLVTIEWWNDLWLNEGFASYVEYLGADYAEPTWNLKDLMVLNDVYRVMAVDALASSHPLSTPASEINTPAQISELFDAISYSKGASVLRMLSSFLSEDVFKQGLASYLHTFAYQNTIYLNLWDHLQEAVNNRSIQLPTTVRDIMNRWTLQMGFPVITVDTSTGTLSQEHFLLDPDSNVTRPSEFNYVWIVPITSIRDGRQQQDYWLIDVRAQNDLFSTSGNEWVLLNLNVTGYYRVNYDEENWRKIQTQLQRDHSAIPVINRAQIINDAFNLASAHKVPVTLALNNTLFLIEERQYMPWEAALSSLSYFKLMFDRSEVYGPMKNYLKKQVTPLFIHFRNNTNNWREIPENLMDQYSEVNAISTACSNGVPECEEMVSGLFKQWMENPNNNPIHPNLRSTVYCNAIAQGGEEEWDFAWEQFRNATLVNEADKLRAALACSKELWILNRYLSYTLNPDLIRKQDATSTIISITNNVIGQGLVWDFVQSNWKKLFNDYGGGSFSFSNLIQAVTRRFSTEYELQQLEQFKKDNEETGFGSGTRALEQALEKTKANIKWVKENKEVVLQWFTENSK
T2 sequence (P08473 whole entry): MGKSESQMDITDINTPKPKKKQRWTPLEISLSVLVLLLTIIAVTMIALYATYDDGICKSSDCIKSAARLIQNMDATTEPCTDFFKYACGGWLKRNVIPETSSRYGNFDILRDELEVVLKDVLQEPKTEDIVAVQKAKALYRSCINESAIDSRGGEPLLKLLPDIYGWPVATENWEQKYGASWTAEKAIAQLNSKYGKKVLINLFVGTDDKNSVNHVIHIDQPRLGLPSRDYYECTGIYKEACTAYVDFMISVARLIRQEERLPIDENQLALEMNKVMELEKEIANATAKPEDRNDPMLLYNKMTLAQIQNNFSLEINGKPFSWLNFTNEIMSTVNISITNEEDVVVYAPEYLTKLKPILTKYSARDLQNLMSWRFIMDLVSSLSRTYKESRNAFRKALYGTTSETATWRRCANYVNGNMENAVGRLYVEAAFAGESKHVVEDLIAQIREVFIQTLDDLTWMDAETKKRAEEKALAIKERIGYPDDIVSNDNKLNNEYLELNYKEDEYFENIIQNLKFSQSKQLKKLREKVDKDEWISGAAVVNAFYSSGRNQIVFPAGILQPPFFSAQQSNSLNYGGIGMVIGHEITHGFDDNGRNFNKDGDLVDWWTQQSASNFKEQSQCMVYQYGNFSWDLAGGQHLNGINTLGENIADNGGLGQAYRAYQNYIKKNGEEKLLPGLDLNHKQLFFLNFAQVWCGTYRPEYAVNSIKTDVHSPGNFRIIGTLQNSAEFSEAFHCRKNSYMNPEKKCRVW

Compound | IC50 [1] [µM] | IC50 [2] [µM] | IC50 [3] [µM] | IC50 [4] [µM]
H-FQRFSR-OH | – | – | 122 | 51
H-QRFTR-OH | – | – | > 100 | > 100
H-NRFSR-OH | – | – | > 100 | 130
N=C(N)NCCC[C@H](NC(=O)[C@H](CO)NC(=O)[C@H](Cc1ccccc1)NC(=O)[C@@H](N)CCCNC(=N)N)C(=O)O [OPIORPHIN (2-5)] (H-RFSR-OH) | – | 180 | – | –

Further lines, results first:

IC50 [1] [µM] | IC50 [2] [µM] | IC50 [3] [µM] | IC50 [4] [µM] | Compound
120 | 7 | – | – | NC(N)=NCCC[C@H](NC(=O)[C@H](CO)NC(=O)[C@@H](N)Cc1ccccc1)C(=O)O [OPIORPHIN (3-5)] (H-Phe-Ser-Arg-OH)
– | > 100 | – | – | N=C(N)NCCC[C@H](NC(=O)[C@@H](N)CCC(N)=O)C(=O)N[C@@H](Cc1ccccc1)C(=O)N[C@@H](CO)C(=O)O [OPIORPHIN (1-4)] (H-QRFS-OH)

Reference: ChEMBL document CHEMBL2029309, “Proposed Bioactive Conformations of Opiorphin, an Endogenous Dual APN/NEP Inhibitor” (ACS Med Chem Lett, 2012)
